Here are results for five compounds from paper PMC10480161, “Identification of potent and selective N-myristoyltransferase inhibitors of Plasmodium vivax liver stage hypnozoites and schizonts” (Nature Communications, 2023).

Where “and” joins values, the source holds several entries; their conditions need not be identical. Equal entries are not always repeated. Some results are limits rather than exact numbers.

By IC50 is commonly meant the concentration needed to halve the response being measured.

System in the first data set: not listed separately
The data set is described as follows: HepG2 cytotoxicity assay (Live/Dead staining). As to conditions: human, HepG2 cells. The procedure, abridged:
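HepG2 cells (5000/well) treated with compounds at 1 to 20 µM, re-dosed with fresh compound every 24 h. Viability scored at 72 h by calcein-AM/ethidium homodimer (1 µM each, 10 min, 37 °C) live/dead staining under fluorescence microscopy.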
As for `Fc1ccc(-c2ccnc(N3CCNCC3)c2)c(OCCc2cccnc2)c1` [Compound 12l], the IC50 at 48 h is over 20 µM.

In the case of `Cc1nn(C)c(C)c1CCOc1ccccc1-c1cccc(OCCN(C)C)c1` [Compound 26b], the IC50 at 48 h was over 20 µM.

In turn, `Cc1nn(C)c(C)c1CCOc1cc(F)ccc1-c1cccc(OCCN(C)C)c1` [Compound 26c] displayed an IC50 at 48 h of over 20 µM.

For `Cc1n[nH]c(C)c1CCOc1cc(F)ccc1-c1cccc(OCCN(C)C)c1` [Compound 26i], the half-maximal inhibitory concentration (IC50) at 48 h is over 20 µM.

Compound `c1cncc(CCOc2ccc3ccccc3c2-c2ccnc(N3CCNCC3)c2)c1` [Compound 30c] displayed an IC50 at 48 h of over 20 µM.

In another data set the test system is P. falciparum NF54. The experiment in a line: P. falciparum blood stage assay (SYBR Green). To be noted: 0.625 uM, 72 h; untreated = 129. The class given is cell-based, Plasmodium falciparum. The procedure:
To assess whether any of the PvNMTis developed here could qualify as TCP-1 candidates, we assessed the effect of each compound on blood-stage P. falciparum parasites, as there is currently no well-established in vitro platform for screening P. vivax blood-stage parasites. Synchronized P. falciparum NF54 ring-stage parasites were treated for 72 h with each compound at various concentrations, ranging from 0.625 µM to 10 µM, and parasite DNA replication was measured using a fluorescent DNA binding dye (SYBR Green).
Sorbitol-synchronized P. falciparum NF54 ring-stage parasites were cultured at a parasitemia of 0.5% and hematocrit of 1.5% in a 96-well microtiter plate. Parasites were treated with each NMT inhibitor compound at 0.625, 1.25, 2.5, 5, or 10 µM for 72 h. Direct lysis of the blood cells to release the parasite DNA was performed by adding 100 μl of LBS buffer containing SYBR green I DNA binding dye to each well. […] ICEstimator regression analysis (http://www.antimalarial-icestimator.net/) was used to obtain relative IC50 values for each compound.
Turning to `Fc1ccc(-c2ccnc(N3CCNCC3)c2)c(OCCc2cccnc2)c1` [Compound 12l], the “P. falciparum blood-stage development (parasite DNA level fluorescence)” value (shortened to “P. falciparum blood-stage development”) is given as 110.1.

Turning to `Cc1nn(C)c(C)c1CCOc1ccccc1-c1cccc(OCCN(C)C)c1` [Compound 26b], the “P. falciparum blood-stage development” value is given as 123.3.

`Cc1nn(C)c(C)c1CCOc1cc(F)ccc1-c1cccc(OCCN(C)C)c1` [Compound 26c]: the “P. falciparum blood-stage development” value came to 127.1.

Consider `Cc1n[nH]c(C)c1CCOc1cc(F)ccc1-c1cccc(OCCN(C)C)c1` [Compound 26i], for which the “P. falciparum blood-stage development” value came to 109.6.

Regarding `c1cncc(CCOc2ccc3ccccc3c2-c2ccnc(N3CCNCC3)c2)c1` [Compound 30c], the “P. falciparum blood-stage development” value is given as 126.9.

The data set is the same for the next values; noted with them: 1.25 uM, 72 h; untreated = 129.
`Fc1ccc(-c2ccnc(N3CCNCC3)c2)c(OCCc2cccnc2)c1` [Compound 12l]: the “P. falciparum blood-stage development” value is recorded as 110.9.

For the compound `Cc1nn(C)c(C)c1CCOc1ccccc1-c1cccc(OCCN(C)C)c1` [Compound 26b], the “P. falciparum blood-stage development” value was 124.2.

For `Cc1nn(C)c(C)c1CCOc1cc(F)ccc1-c1cccc(OCCN(C)C)c1` [Compound 26c], the “P. falciparum blood-stage development” value stood at 126.9.

As to `Cc1n[nH]c(C)c1CCOc1cc(F)ccc1-c1cccc(OCCN(C)C)c1` [Compound 26i], the “P. falciparum blood-stage development” value is reported as 112.9.

As to `c1cncc(CCOc2ccc3ccccc3c2-c2ccnc(N3CCNCC3)c2)c1` [Compound 30c], the “P. falciparum blood-stage development” value was determined as 124.

The data set is the same for the next values; noted with them: 2.5 uM, 72 h; untreated = 129.
In the case of `Fc1ccc(-c2ccnc(N3CCNCC3)c2)c(OCCc2cccnc2)c1` [Compound 12l], the “P. falciparum blood-stage development” value is 110.4.

With `Cc1nn(C)c(C)c1CCOc1ccccc1-c1cccc(OCCN(C)C)c1` [Compound 26b], the “P. falciparum blood-stage development” value came to 115.6.

Turning to `Cc1nn(C)c(C)c1CCOc1cc(F)ccc1-c1cccc(OCCN(C)C)c1` [Compound 26c], the “P. falciparum blood-stage development” value worked out at 117.8.

`Cc1n[nH]c(C)c1CCOc1cc(F)ccc1-c1cccc(OCCN(C)C)c1` [Compound 26i]: the “P. falciparum blood-stage development” value was determined as 111.2.

With `c1cncc(CCOc2ccc3ccccc3c2-c2ccnc(N3CCNCC3)c2)c1` [Compound 30c], the “P. falciparum blood-stage development” value is 114.3.

The data set is the same for the next values; noted with them: 5 uM, 72 h; untreated = 129.
On to `Fc1ccc(-c2ccnc(N3CCNCC3)c2)c(OCCc2cccnc2)c1` [Compound 12l], for which the “P. falciparum blood-stage development” value turned out to be 99.67.

Regarding `Cc1nn(C)c(C)c1CCOc1ccccc1-c1cccc(OCCN(C)C)c1` [Compound 26b], the “P. falciparum blood-stage development” value was determined as 103.2.

Consider `Cc1nn(C)c(C)c1CCOc1cc(F)ccc1-c1cccc(OCCN(C)C)c1` [Compound 26c], for which the “P. falciparum blood-stage development” value came to 108.1.

`Cc1n[nH]c(C)c1CCOc1cc(F)ccc1-c1cccc(OCCN(C)C)c1` [Compound 26i]: the “P. falciparum blood-stage development” value is 93.25.

`c1cncc(CCOc2ccc3ccccc3c2-c2ccnc(N3CCNCC3)c2)c1` [Compound 30c]: the “P. falciparum blood-stage development” value was 101.4.

Staying with this data set, now noted: 10 uM, 72 h; untreated = 129.
In the case of `Fc1ccc(-c2ccnc(N3CCNCC3)c2)c(OCCc2cccnc2)c1` [Compound 12l], the “P. falciparum blood-stage development” value was determined as 86.75.

For `Cc1nn(C)c(C)c1CCOc1ccccc1-c1cccc(OCCN(C)C)c1` [Compound 26b], the “P. falciparum blood-stage development” value is given as 94.32.

As to `Cc1nn(C)c(C)c1CCOc1cc(F)ccc1-c1cccc(OCCN(C)C)c1` [Compound 26c], the “P. falciparum blood-stage development” value is 97.66.

Turning to `Cc1n[nH]c(C)c1CCOc1cc(F)ccc1-c1cccc(OCCN(C)C)c1` [Compound 26i], the “P. falciparum blood-stage development” value is listed as 85.5.

With `c1cncc(CCOc2ccc3ccccc3c2-c2ccnc(N3CCNCC3)c2)c1` [Compound 30c], the “P. falciparum blood-stage development” value turned out to be 93.99.

Still in this data set, the particulars now being: Plasmodium falciparum, NF54; ring-stage parasites, 72 h, relative IC50.
The compound `Fc1ccc(-c2ccnc(N3CCNCC3)c2)c(OCCc2cccnc2)c1` [Compound 12l] returned an IC50 of 370 nM.

In turn, `Cc1nn(C)c(C)c1CCOc1ccccc1-c1cccc(OCCN(C)C)c1` [Compound 26b] returned an IC50 of 710 nM.

As for `Cc1nn(C)c(C)c1CCOc1cc(F)ccc1-c1cccc(OCCN(C)C)c1` [Compound 26c], the IC50 was determined as 820 nM.

`Cc1n[nH]c(C)c1CCOc1cc(F)ccc1-c1cccc(OCCN(C)C)c1` [Compound 26i] yielded an IC50 of 400 nM. This IC50 is about 2-fold lower than that of the compound before.

The compound `c1cncc(CCOc2ccc3ccccc3c2-c2ccnc(N3CCNCC3)c2)c1` [Compound 30c] yielded an IC50 of 680 nM.

The test system of another data set is primary human hepatocytes. The experiment in a line: Nuclear counts (DAPI) in P. vivax-infected primary hepatocytes as measure of toxicity. The class given is cell-based. As to conditions: 1 uM, two technical replicates. The procedure:
Accordingly, we applied dose–response curves of all the tested NMTs on parasite isolates 2 and 3 over concentrations up to 20 µM (Fig. 5c, d, Source Data file). […] Nuclei were counted in each well using DAPI staining as a measure of toxicity (Supplementary Fig. 86, Supplementary Source data). We used the phosphatidylinositol 4-kinase inhibitor (PI4Ki), MMV390048, as a positive control for eliminating schizonts[37],[38].
Plasmodium vivax liver stage assays were performed as described previously. Cryopreserved primary human hepatocytes (Cat No. F00995-P) and hepatocyte culture medium (HCM) (InVitroGroTM CP Medium) were obtained from Bioreclamation IVT, Inc., (Baltimore, MD, USA). Briefly, we seeded 384-well plates with primary hepatocytes from a single donor lot at a density of 25,000 cells per well. We then infected the hepatocytes with 14,000 freshly hand-dissected sporozoites per well. Cells were exposed to the compounds at indicated concentrations from day 5 post-infection. We used Pi4K inhibitor MMV390048, at 20 µM, as a positive control to eliminate P. vivax liver schizonts. We then proceeded to feed cultures every day, replacing the compounds until day 8 post-infection. Cells were fixed with 4% PFA, permeabilized with 1% Triton X-100, blocked with 2% BSA, and stained with DAPI and PvUIS4 antibodies to detect schizonts and hypnozoites forms by confocal microscopy. […] DAPI was diluted 1:2000. The images were processed, analyzed and outlier cells were removed using IMARIS (Bitplane Inc.) image analysis software.
Supplementary Fig. 86. […] Nuclear […]
counts, normalized to DMSO controls, for NMT inhibitors across a dose response. Counts were ob-tained using DAPI staining from the P. vivax-infected wells quantified in Fig. 5d. Error bars represent the standard deviation of two technical replicates.
(1 picture or pasted object on this page, not shown here)
`Fc1ccc(-c2ccnc(N3CCNCC3)c2)c(OCCc2cccnc2)c1` [Compound 12l]: the “Nucleus counts per well” value is 15910 per well and 14650 per well.

Take `Cc1nn(C)c(C)c1CCOc1ccccc1-c1cccc(OCCN(C)C)c1` [Compound 26b]: the “Nucleus counts per well” value is 14910 per well and 16840 per well.

Regarding `Cc1nn(C)c(C)c1CCOc1cc(F)ccc1-c1cccc(OCCN(C)C)c1` [Compound 26c], the “Nucleus counts per well” value was 16190 per well and 15050 per well.

For the compound `Cc1n[nH]c(C)c1CCOc1cc(F)ccc1-c1cccc(OCCN(C)C)c1` [Compound 26i], the “Nucleus counts per well” value is 15030 per well and 14960 per well.

Take `c1cncc(CCOc2ccc3ccccc3c2-c2ccnc(N3CCNCC3)c2)c1` [Compound 30c]: the “Nucleus counts per well” value was 12390 per well and 13530 per well.

The data set is the same for the next values; noted with them: 2.5uM, two technical replicates.
Consider `Fc1ccc(-c2ccnc(N3CCNCC3)c2)c(OCCc2cccnc2)c1` [Compound 12l], for which the “Nucleus counts per well” value was 13010 per well and 13310 per well.

Regarding `Cc1nn(C)c(C)c1CCOc1ccccc1-c1cccc(OCCN(C)C)c1` [Compound 26b], the “Nucleus counts per well” value was 13670 per well and 14610 per well.

`Cc1nn(C)c(C)c1CCOc1cc(F)ccc1-c1cccc(OCCN(C)C)c1` [Compound 26c]: the “Nucleus counts per well” value was 15160 per well and 15950 per well.

Regarding `Cc1n[nH]c(C)c1CCOc1cc(F)ccc1-c1cccc(OCCN(C)C)c1` [Compound 26i], the “Nucleus counts per well” value was 13600 per well and 14280 per well.

`c1cncc(CCOc2ccc3ccccc3c2-c2ccnc(N3CCNCC3)c2)c1` [Compound 30c]: the “Nucleus counts per well” value is 13960 per well and 13570 per well.

Still in this data set, the particulars now being: 5 uM, two technical replicates.
With `Fc1ccc(-c2ccnc(N3CCNCC3)c2)c(OCCc2cccnc2)c1` [Compound 12l], the “Nucleus counts per well” value is 13030 per well and 13070 per well.

Consider `Cc1nn(C)c(C)c1CCOc1ccccc1-c1cccc(OCCN(C)C)c1` [Compound 26b], for which the “Nucleus counts per well” value was 13920 per well and 13020 per well.

For `Cc1nn(C)c(C)c1CCOc1cc(F)ccc1-c1cccc(OCCN(C)C)c1` [Compound 26c], the “Nucleus counts per well” value was 16180 per well and 14300 per well.

Regarding `Cc1n[nH]c(C)c1CCOc1cc(F)ccc1-c1cccc(OCCN(C)C)c1` [Compound 26i], the “Nucleus counts per well” value was 12980 per well and 13510 per well.

Take `c1cncc(CCOc2ccc3ccccc3c2-c2ccnc(N3CCNCC3)c2)c1` [Compound 30c]: the “Nucleus counts per well” value is 14060 per well and 13800 per well.

The same data set, now with this note: 10uM, two technical replicates.
Take `Fc1ccc(-c2ccnc(N3CCNCC3)c2)c(OCCc2cccnc2)c1` [Compound 12l]: the “Nucleus counts per well” value is 13130 per well and 13070 per well.

Regarding `Cc1nn(C)c(C)c1CCOc1ccccc1-c1cccc(OCCN(C)C)c1` [Compound 26b], the “Nucleus counts per well” value was 12600 per well and 13580 per well.

On to `Cc1nn(C)c(C)c1CCOc1cc(F)ccc1-c1cccc(OCCN(C)C)c1` [Compound 26c], for which the “Nucleus counts per well” value was 14610 per well and 15250 per well.

For the compound `Cc1n[nH]c(C)c1CCOc1cc(F)ccc1-c1cccc(OCCN(C)C)c1` [Compound 26i], the “Nucleus counts per well” value was 14570 per well and 13510 per well.

For `c1cncc(CCOc2ccc3ccccc3c2-c2ccnc(N3CCNCC3)c2)c1` [Compound 30c], the “Nucleus counts per well” value is 13530 per well and 13880 per well.

The same data set, now with this note: 20uM, two technical replicates, P. vivax-infected wells.
For the compound `Fc1ccc(-c2ccnc(N3CCNCC3)c2)c(OCCc2cccnc2)c1` [Compound 12l], the “Nucleus counts per well” value was 11440 per well and 13460 per well.

On to `Cc1nn(C)c(C)c1CCOc1ccccc1-c1cccc(OCCN(C)C)c1` [Compound 26b], for which the “Nucleus counts per well” value is 11600 per well and 12490 per well.

`Cc1nn(C)c(C)c1CCOc1cc(F)ccc1-c1cccc(OCCN(C)C)c1` [Compound 26c]: the “Nucleus counts per well” value is 12520 per well and 13160 per well.

Take `Cc1n[nH]c(C)c1CCOc1cc(F)ccc1-c1cccc(OCCN(C)C)c1` [Compound 26i]: the “Nucleus counts per well” value is 12860 per well and 13500 per well.

With `c1cncc(CCOc2ccc3ccccc3c2-c2ccnc(N3CCNCC3)c2)c1` [Compound 30c], the “Nucleus counts per well” value was 14090 per well and 14800 per well.
